≈ marks a conversion by molar mass, not a printed value. Read-outs that look alike come from different tables or passages of the source.
Columns and labels:
E. cloacae A-9656 = experiment: In vitro MIC, tube dilution; assay type: cell-based; details: tube dilution, Nutrient Broth, overnight incubation at 37° C.
S. pyogenes A-9604 = experiment: In vitro MIC, tube dilution; assay type: cell-based; details: Nutrient Broth, overnight incubation at 37° C.; for MIC: Streptococcus pyogenes, A9604, tube dilution
[1] = Blood levels in mice after intramuscular administration; assay type: in vivo; details: mouse, intramuscular dose of 20 mg/kg
From the text: Compounds were solubilized in 0.1 M phosphate buffer pH 7. Values are fro
a single test; 4 mice used per compound.
*t1/2 refers to halflife in minutes
**AUC refers to the area under the blood concentrationtime curve
(§1) Also shown is the urinary recovery in the mice.
Compounds were solubilized in 0.1 M phosphate buffer, pH 7.
Values based on a single test; 4 mice per compound.
*T1/2 refers to halflife in minutes

B. fragilis A22863 = experiment: In vitro MIC, tube dilution; assay type: cell-based; details: Bacteroides fragilis, Nutrient Broth, overnight incubation at 37° C.
From the text: (§2) N-Formimidoyl thienamycin was included as a comparison compound.

B. fragilis A22696 = experiment: In vitro MIC, tube dilution; assay type: cell-based; details: Bacteroides fragilis, Nutrient Broth, overnight incubation at 37° C.
From the text: as §2

E. cloacae A-9569 = experiment: In vitro MIC, tube dilution; assay type: cell-based; details: Enterobacter cloacae, A9569, Nutrient Broth, overnight incubation at 37° C.
From the text: as §2

B. fragilis A22053 = experiment: In vitro MIC, tube dilution; assay type: cell-based; details: Bacteroides fragilis, Nutrient Broth, overnight incubation at 37° C.
From the text: as §2

P. mirabilis A-9900 = experiment: In vitro MIC, tube dilution; assay type: cell-based; details: Nutrient Broth, overnight incubation at 37° C.; for MIC: Proteus mirabilis, A9900, tube dilution
S. aureus A-9606 = experiment: Protective effect in the intramuscular treatment of infected mice (PD50); assay type: in vivo; details: Staphylococcus aureus, A9606, im, read-out: PD50/treatment, S. aureus A-9606, mice infected i.p. (Ex. 2: 2 × 10^9 organisms; Ex. 4 and 5: ~9 × 10^7), treated i.m. 0 and 2 h postinfection
P. aeruginosa A21213 = experiment: In vitro MIC, tube dilution; assay type: cell-based; details: Nutrient Broth, overnight incubation at 37° C.; for MIC: Pseudomonas aeruginosa, A21213, tube dilution
S. marcescens A20019 = experiment: In vitro MIC, tube dilution; assay type: cell-based; details: tube dilution, Nutrient Broth, overnight incubation at 37° C.
K. pneumoniae A20468 = experiment: In vitro MIC, tube dilution; assay type: cell-based; details: Klebsiella pneumoniae, A20468, tube dilution, Nutrient Broth, overnight incubation at 37° C.
[2] = Urinary recovery after intramuscular administration to mice; assay type: in vivo; details: mouse, urine, im, 20 mg/kg, mice, i.m. 20 mg/kg, 6-24 hours after administration; read-out: Percentage of Dose Recovered in urine, 6-24 hours
Method: Compounds were solubilized in 0.1 M phosphate buffer pH 7. Values are from a single test; 4 mice per compound.
as §1
***Recovery based on 0-6 hour collection

P. morganii A15153 = experiment: In vitro MIC, tube dilution; assay type: cell-based; details: Morganella morganii, A15153, tube dilution, Nutrient Broth, overnight incubation at 37° C.; read-out: MIC P. morganii A15153
S. faecalis A20688 = experiment: In vitro MIC, tube dilution; assay type: cell-based; details: Nutrient Broth, overnight incubation at 37° C.; for MIC: Enterococcus faecalis, A20688, tube dilution
P. rettgeri A22424 = experiment: In vitro MIC, tube dilution; assay type: cell-based; details: Providencia rettgeri, A22424, tube dilution, Nutrient Broth, overnight incubation at 37° C.
P. aeruginosa A-9843a [3] = experiment: Protective effect in the intramuscular treatment of infected mice (PD50); assay type: in vivo; details: Pseudomonas aeruginosa, A9843A, im
Method: The PD50 (dose in mg/kg required to give protection to 50% of the infected mice) is indicated.
Treatment Schedule: Mice were treated i.m. with drugs 0 and 2 hours post-infection; 5 mice per dose were used for each test
*For compound of Ex. 2, mice were infected i.p. with 2 × 10^9
compounds of Ex. 4 and 5, mice were infected i.p. with ~9 ×
were treated i.m. with drugs 0 and 2 h postinfection.

P. aeruginosa A20481 = experiment: as above; assay type: in vivo; details: Pseudomonas aeruginosa, A20481, im; mice infected i.p. (Ex. 2: 1 × 10^5 organisms), treated i.m. 0 and 2 h postinfection
S. pneumoniae A-9585 = experiment: In vitro MIC, tube dilution; assay type: cell-based; details: overnight incubation at 37° C.; for MIC: Streptococcus pneumoniae, A9585, Nutrient Broth
P. aeruginosa A-9843A [4] = experiment: In vitro MIC, tube dilution; assay type: cell-based; details: Pseudomonas aeruginosa, A9843A, Nutrient Broth, overnight incubation at 37° C.
[5] = tested on: S. aureus A-9606 (Pen-res.); experiment: In vitro MIC, tube dilution; assay type: cell-based; details: Nutrient Broth, overnight incubation at 37° C.; for MIC: Staphylococcus aureus
K. pneumoniae A-9664 = experiment: In vitro MIC, tube dilution; assay type: cell-based; details: Nutrient Broth, overnight incubation at 37° C.; for MIC: Klebsiella pneumoniae, A9664, tube dilution
[6] = tube dilution, additional data table, listed as MK 0787

Q: Which MIC (E. cloacae A-9656; Enterobacter cloacae, A9656) does the source give for `C[C@@H](O)[C@H]1C(=O)N2C(C(=O)O)=C(SCCN=CN)C[C@H]12` [N-Formimidoyl Thienamycin, N-formimidoyl thienamycin, reference compound] here?
A: The MIC was 0.06 µg/mL (≈ 0.2 µM).

Q: What about the “MIC E. cloacae A-9656” value (E. cloacae A-9656; additional data table) of the same molecule?
A: The value was 0.06 µg/mL (≈ 0.2 µM).

Q: And the MIC (S. pyogenes A-9604)?
A: The MIC was 0.001 µg/mL (≈ 0.00334 µM).

Q: What about the MIC (S. pyogenes A-9604; additional data table) of the same molecule?
A: The MIC was 0.002 µg/mL (≈ 0.00668 µM).

Q: What about the “MIC S. pyogenes A-9604” value (S. pyogenes A-9604; [6]) of the same molecule?
A: Its value is 0.001 µg/mL (≈ 0.00334 µM).

Q: And the “Blood AUC” value [1]?
A: Its value is 6000 ng·h/mL.

Q: And the MIC (B. fragilis A22863)?
A: Its MIC is 1 µg/mL (≈ 3.34 µM).

Q: What about the MIC (B. fragilis A22696) of the same molecule?
A: Its MIC is 0.13 µg/mL (≈ 0.434 µM).

Q: And the MIC (E. cloacae A-9569)?
A: The MIC was 0.06 µg/mL (≈ 0.2 µM).

Q: What about the MIC (B. fragilis A22053) of the same molecule?
A: Its MIC is 0.06 µg/mL (≈ 0.2 µM).

Q: What about the MIC (P. mirabilis A-9900) of the same molecule?
A: Its MIC is 0.06 µg/mL (≈ 0.2 µM).

Q: And the MIC (P. mirabilis A-9900; additional data table)?
A: Its MIC is 0.03 µg/mL (≈ 0.1 µM).

Q: What about the “MIC P. mirabilis A-9900” value (P. mirabilis A-9900; [6]) of the same molecule?
A: Its value is 0.06 µg/mL (≈ 0.2 µM).

Q: And the ED50 (S. aureus A-9606)?
A: The ED50 was 0.07 mg/kg.

Q: And the MIC (P. aeruginosa A21213)?
A: The MIC was 0.25 µg/mL (≈ 0.835 µM).

Q: And the MIC (P. aeruginosa A21213; additional data table)?
A: Its MIC is 0.13 µg/mL (≈ 0.434 µM).

Q: And the “MIC P. aeruginosa A21213” value (P. aeruginosa A21213; [6])?
A: Its value is 0.25 µg/mL (≈ 0.835 µM).

Q: What about the MIC (S. marcescens A20019; Serratia marcescens, A20019) of the same molecule?
A: The MIC was 0.03 µg/mL (≈ 0.1 µM).

Q: And the “MIC S. marcescens A20019” value (S. marcescens A20019; additional data table)?
A: The value was 0.03 µg/mL (≈ 0.1 µM).

Q: What about the MIC (K. pneumoniae A20468) of the same molecule?
A: The MIC was 0.06 µg/mL (≈ 0.2 µM).

Q: What about the dose excreted at 24 h [2] of the same molecule?
A: The dose excreted at 24 h was under 0.1%.

Q: What about the MIC (P. morganii A15153) of the same molecule?
A: Its MIC is 0.13 µg/mL (≈ 0.434 µM).

Q: What about the MIC (S. faecalis A20688) of the same molecule?
A: Its MIC is 0.5 µg/mL (≈ 1.67 µM).

Q: And the MIC (S. faecalis A20688; additional data table)?
A: The MIC was 0.25 µg/mL (≈ 0.835 µM).

Q: What about the “MIC S. faecalis A20688” value (S. faecalis A20688; [6]) of the same molecule?
A: The value was 0.5 µg/mL (≈ 1.67 µM).

Q: What about the MIC (P. rettgeri A22424) of the same molecule?
A: Its MIC is 0.25 µg/mL (≈ 0.835 µM).

Q: What about the MIC (P. rettgeri A22424; additional data table) of the same molecule?
A: The MIC was 0.13 µg/mL (≈ 0.434 µM).

Q: What about the ED50 (P. aeruginosa A-9843a [3]; read-out: PD50/treatment, P. aeruginosa A9843A) of the same molecule?
A: The ED50 was 1 mg/kg.

Q: And the ED50 (P. aeruginosa A-9843a [3]; mice, i.m., *Historical data, read-out: PD50/Treatment, P. aeruginosa A-9843a (historical data))?
A: Its ED50 is 0.5 mg/kg.

Q: And the ED50 (P. aeruginosa A20481)?
A: Its ED50 is 0.4 mg/kg.

Q: What about the “MIC S. pneumoniae A-9585” value (S. pneumoniae A-9585; Nutrient Broth, additional data table, listed as MK 0787) of the same molecule?
A: The value was 0.001 µg/mL (≈ 0.00334 µM).

Q: What about the MIC (S. pneumoniae A-9585) of the same molecule?
A: Its MIC is 0.004 µg/mL (≈ 0.0134 µM).

Q: And the MIC (S. pneumoniae A-9585; additional data table)?
A: The MIC was 0.002 µg/mL (≈ 0.00668 µM).

Q: And the MIC (P. aeruginosa A-9843A [4])?
A: The MIC was 1 µg/mL (≈ 3.34 µM).

Q: What about the MIC (P. aeruginosa A-9843A [4]; additional data table) of the same molecule?
A: The MIC was 1 µg/mL (≈ 3.34 µM).

Q: What about the “MIC S. aureus (Pen-res.) A-9606” value ([5]; additional data table, listed as MK 0787) of the same molecule?
A: The value was 0.004 µg/mL (≈ 0.0134 µM).

Q: And the MIC ([5]; additional data table, read-out: MIC S. aureus (Pen-res.) A-9606)?
A: Its MIC is 0.008 µg/mL (≈ 0.0267 µM).

Q: And the MIC ([5]; read-out: MIC S. aureus A-9606 (Pen-res.))?
A: The MIC was 0.008 µg/mL (≈ 0.0267 µM).

Q: What about the MIC (K. pneumoniae A-9664) of the same molecule?
A: The MIC was 0.13 µg/mL (≈ 0.434 µM).

Q: And the MIC (K. pneumoniae A-9664; additional data table)?
A: Its MIC is 0.03 µg/mL (≈ 0.1 µM).

Q: What about the “MIC K. pneumoniae A-9664” value (K. pneumoniae A-9664; [6]) of the same molecule?
A: Its value is 0.06 µg/mL (≈ 0.2 µM).

Source: patent publication US4536335A, “Carbapenem antibiotics” (Bristol-Myers Company, priority 1983, dated 1985)
